According to PubChem BioAssay (NCI):
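The compound was tested at five concentrations on cells cultured in 96-well plates, with a 48-hour exposure period. The concentration for full growth arrest is given as TGI.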

Experiments:
Experiment in all cases: NCI tumour cell line growth inhibition, 48 h
SNB-19 CNS = tested on: SNB-19 CNS
DMS 114 small cell lung = tested on: DMS 114 small cell lung
UO-31 renal = tested on: UO-31 renal
OVCAR-5 ovarian = tested on: OVCAR-5 ovarian
MALME-3M melanoma = tested on: MALME-3M melanoma
ACHN renal = tested on: ACHN renal
M14 melanoma = tested on: M14 melanoma
TK-10 renal = tested on: TK-10 renal
HOP-62 NSCLC = tested on: HOP-62 NSCLC
SNB-78 CNS = tested on: SNB-78 CNS
KM12 colon = tested on: KM12 colon
CCRF-CEM leukemia = tested on: CCRF-CEM leukemia
LOX IMVI melanoma = tested on: LOX IMVI melanoma
U251 CNS = tested on: U251 CNS
UACC-62 melanoma = tested on: UACC-62 melanoma
SF-295 CNS = tested on: SF-295 CNS
NCI-H460 lung = tested on: NCI-H460 lung
HOP-92 NSCLC = tested on: HOP-92 NSCLC
SN12C renal = tested on: SN12C renal
IGROV1 ovarian = tested on: IGROV1 ovarian
RPMI-8226 leukemia = tested on: RPMI-8226 leukemia
HT29 colon = tested on: HT29 colon
NCI-H23 lung = tested on: NCI-H23 lung
OVCAR-8 ovarian = tested on: OVCAR-8 ovarian
LXFL 529 NSCLC = tested on: LXFL 529 NSCLC
MOLT-4 leukemia = tested on: MOLT-4 leukemia
SK-MEL-2 melanoma = tested on: SK-MEL-2 melanoma
HCC-2998 colon = tested on: HCC-2998 colon
SK-MEL-5 melanoma = tested on: SK-MEL-5 melanoma
A549 NSCLC = tested on: A549 NSCLC
DLD-1 colon = tested on: DLD-1 colon
COLO 205 colon = tested on: COLO 205 colon
M19-MEL melanoma = tested on: M19-MEL melanoma
SW-620 colon = tested on: SW-620 colon
HCT-116 colon = tested on: HCT-116 colon
OVCAR-4 ovarian = tested on: OVCAR-4 ovarian
786-0 renal = tested on: 786-0 renal
EKVX NSCLC = tested on: EKVX NSCLC
XF 498 CNS = tested on: XF 498 CNS
RXF 393 renal = tested on: RXF 393 renal
SK-MEL-28 melanoma = tested on: SK-MEL-28 melanoma
UACC-257 melanoma = tested on: UACC-257 melanoma
HL-60(TB) leukemia = tested on: HL-60(TB) leukemia
KM20L2 colon = tested on: KM20L2 colon
SF-268 CNS = tested on: SF-268 CNS
HOP-18 NSCLC = tested on: HOP-18 NSCLC
OVCAR-3 ovarian = tested on: OVCAR-3 ovarian
SNB-75 CNS = tested on: SNB-75 CNS
DMS 273 small cell lung = tested on: DMS 273 small cell lung
HCT-15 colon = tested on: HCT-15 colon
SF-539 CNS = tested on: SF-539 CNS
CAKI-1 renal = tested on: CAKI-1 renal
SR leukemia = tested on: SR leukemia
A498 renal = tested on: A498 renal
SK-OV-3 ovarian = tested on: SK-OV-3 ovarian
K-562 leukemia = tested on: K-562 leukemia

NC1=NN(c2ccccc2)C(=O)C1/C(=N\NC(=O)c1cc2ccccc2cc1O)C(=O)Nc1cccc(C(F)(F)F)c1 (configuration not stated)
TGI (SNB-19 CNS): > 100 µM
TGI (DMS 114 small cell lung): 83 µM
TGI (UO-31 renal): > 100 µM
TGI (OVCAR-5 ovarian): 68.4 µM
TGI (MALME-3M melanoma): > 100 µM
TGI (ACHN renal): > 100 µM
TGI (M14 melanoma): > 100 µM
TGI (TK-10 renal): > 100 µM
TGI (HOP-62 NSCLC): > 100 µM
TGI (SNB-78 CNS): > 100 µM
TGI (KM12 colon): > 100 µM
TGI (CCRF-CEM leukemia): 34.1 µM
TGI (LOX IMVI melanoma): > 100 µM
TGI (U251 CNS): > 100 µM
TGI (UACC-62 melanoma): > 100 µM
TGI (SF-295 CNS): > 100 µM
TGI (NCI-H460 lung): > 100 µM
TGI (HOP-92 NSCLC): > 100 µM
TGI (SN12C renal): > 100 µM
TGI (IGROV1 ovarian): > 100 µM
TGI (RPMI-8226 leukemia): > 100 µM
TGI (HT29 colon): > 100 µM
TGI (NCI-H23 lung): > 100 µM
TGI (OVCAR-8 ovarian): > 100 µM
TGI (LXFL 529 NSCLC): > 100 µM
TGI (MOLT-4 leukemia): 65.9 µM
TGI (SK-MEL-2 melanoma): 93.8 µM
TGI (HCC-2998 colon): > 100 µM
TGI (SK-MEL-5 melanoma): 51.8 µM
TGI (A549 NSCLC): > 100 µM
TGI (DLD-1 colon): > 100 µM
TGI (COLO 205 colon): > 100 µM
TGI (M19-MEL melanoma): > 100 µM
TGI (SW-620 colon): > 100 µM
TGI (HCT-116 colon): 94.9 µM
TGI (OVCAR-4 ovarian): > 100 µM
TGI (786-0 renal): > 100 µM
TGI (EKVX NSCLC): > 100 µM
TGI (XF 498 CNS): > 100 µM
TGI (RXF 393 renal): > 100 µM
TGI (SK-MEL-28 melanoma): > 100 µM
TGI (UACC-257 melanoma): 71.1 µM
TGI (HL-60(TB) leukemia): 27.6 µM
TGI (KM20L2 colon): > 100 µM
TGI (SF-268 CNS): > 100 µM
TGI (HOP-18 NSCLC): > 100 µM
TGI (OVCAR-3 ovarian): > 100 µM
TGI (SNB-75 CNS): > 100 µM

CCOC(=O)C1=C(C)N(Cc2ccccc2)C(=O)C1CC#N (configuration not stated)
TGI (SNB-19 CNS): > 100 µM
TGI (DMS 114 small cell lung): > 100 µM
TGI (UO-31 renal): > 100 µM
TGI (ACHN renal): > 100 µM
TGI (M14 melanoma): > 100 µM
TGI (DMS 273 small cell lung): > 100 µM
TGI (HOP-62 NSCLC): > 100 µM
TGI (SNB-78 CNS): > 100 µM
TGI (KM12 colon): > 100 µM
TGI (CCRF-CEM leukemia): > 100 µM
TGI (U251 CNS): > 100 µM
TGI (UACC-62 melanoma): > 100 µM
TGI (SF-295 CNS): > 100 µM
TGI (HCT-15 colon): > 100 µM
TGI (NCI-H460 lung): > 100 µM
TGI (HOP-92 NSCLC): 82.5 µM
TGI (SN12C renal): > 100 µM
TGI (IGROV1 ovarian): > 100 µM
TGI (RPMI-8226 leukemia): > 100 µM
TGI (HT29 colon): > 100 µM
TGI (SF-539 CNS): > 100 µM
TGI (NCI-H23 lung): > 100 µM
TGI (CAKI-1 renal): > 100 µM
TGI (OVCAR-8 ovarian): > 100 µM
TGI (LXFL 529 NSCLC): > 100 µM
TGI (MOLT-4 leukemia): > 100 µM
TGI (SR leukemia): > 100 µM
TGI (SK-MEL-2 melanoma): > 100 µM
TGI (HCC-2998 colon): > 100 µM
TGI (A549 NSCLC): > 100 µM
TGI (DLD-1 colon): > 100 µM
TGI (A498 renal): > 100 µM
TGI (SK-OV-3 ovarian): > 100 µM
TGI (COLO 205 colon): > 100 µM
TGI (M19-MEL melanoma): > 100 µM
TGI (SW-620 colon): > 100 µM
TGI (HCT-116 colon): > 100 µM
TGI (OVCAR-4 ovarian): > 100 µM
TGI (786-0 renal): > 100 µM
TGI (EKVX NSCLC): > 100 µM
TGI (RXF 393 renal): > 100 µM
TGI (SK-MEL-28 melanoma): > 100 µM
TGI (UACC-257 melanoma): > 100 µM
TGI (K-562 leukemia): > 100 µM
TGI (HL-60(TB) leukemia): 94.7 µM
TGI (KM20L2 colon): > 100 µM
TGI (HOP-18 NSCLC): > 100 µM
TGI (OVCAR-3 ovarian): > 100 µM
TGI (SNB-75 CNS): > 100 µM
